Test results taken from US20250186379A1, “METHODS AND AGENTS FOR DECREASING INSULIN RESISTANCE” (Whitehead Institute for Biomedical Research, priority 2021, published 2025).
“Also recorded” adds a separate entry of the source.

Columns and labels:
[1] = system: lipogenic and gluconeogenesis genes (FASN, PCK1); assay: Expression of lipogenic and gluconeogenesis genes (RNA-seq, RT-qPCR) in HepG2 cells; format: cell-based, human
Protocol: RNA was extracted using TRIzol™ reagent (Thermo Fisher Scientific, 15596026) following the manufacturer's instructions. cDNA synthesis was performed using qScript cDNA Supermix (QuantaBio, 95048-500) according to the manufacturer's instructions, using 1000 ng RNA as starting material.
qPCR was performed on a Thermo Fisher Scientific QuantStudio 6 machine using Fast SYBR™ Green Master Mix (Thermo Fisher, 4385618) and primers (listed below) according to the manufacturer's instructions. Expression data is presented after calculating the relative expression compared with the housekeeping gene RPLP0, using the equation Relative Quantification (RQ)=100/(2^(Target Gene Ct—RPLP0 Ct). When data is reported relative to a sample condition, the condition of reference was set as 1 and the data of the other conditions were reported as a ratio (condition/condition of reference).
RNA sequencing was performed by the Whitehead Institute Genome Technology Core. Libraries were prepared using the KAPA HyperPrep stranded RNA kit (Roche, KK8540) following manufacturer's instructions. Samples were sequenced on a HiSeq2500 in High-Output mode generating 50 bases, single-end reads.
RNA-sequencing (RNA-seq) bioinformatics analysis was performed on the Whitehead High-Performance Computing Facility using the nf-core RNA-seq pipeline v1.4.2^13 with Nextflow v20.04.1. Quality control of .fastq files was performed with FastQC v0.11.8. The reads were single-end and the strandedness was set to reverse. Low quality sequences were trimmed using Trim Galore!v0.6.4. Alignment was performed against the hg19 genome assembly using STAR v2.6.1d^17 and duplicates were marked using Picard MarkDuplicates v2.21.1. Quantification of transcripts was performed using featureCounts v1.6.4^18. Differential expression analysis was performed using edgeR v3.26.5^19. deepTools v3.3.1^20, dupRadar v1.14.0^21, Qualimap v.2.2.2-dev^22, and MultiQC v1.7 were used for quality control. […]

[2] = system: HepG2 cells; assay: Glucose production in HepG2 cells; format: cell-based, human
Protocol: Insulin sensitive and resistant cells were cultured in EMEM for 30 minutes and then cells were treated with 0, 0.1, 1 and 10 nM insulin in glucose production media, containing DMEM (Thermo Fisher Scientific, A1443001), 15 mM HEPES (Gibco, 15630-080), 1 mM pyruvate (Sigma Aldrich, P5280), 20 mM lactate (Sigma Aldrich, L7022-5G) for 4-5 hours. Media was removed and glucose production was measured using Amplex™ Red Glucose/Glucose oxidase assay kit (Thermo Fisher Scientific, A22189) according to the manufacturer's specifications.
To wash out insulin, cells were washed with EMEM (ATCC 30-2003) seven times, including: three quick washes, three 5-minute washes and a long 20 minute-wash in EMEM at 37° C. Cells were washed with glucose-free RPMI (Gibco, 11879-020) then cultured in glucose-free RPMI for 3 hours. […] Cells were then processed for metabolite isolation (see below).
Metabolite isolation from HepG2 cells: cells were washed in ice-cold PBS (Life Technologies, AM9625), 500 μl of cold 80% MeOH (shared by the Metabolite Profiling Core Facility) was added per well of a 6-well plate and the plate was placed at −80° C. for at least 15 minutes. Following the −80 incubation, the plate was scraped on dry ice and the solution was transferred to a 1.5 ml tube and then vortexed for 5 minutes. […]

[3] = system: IR condensates; assay: Immunofluorescence for IR in human liver tissue from donors; format: in vivo; conditions: liver tissue of donors with T2D treated with metformin vs T2D and healthy donors
From the text: (§1) Images were then processed using Fiji/ImageJ v2.1.0/153c.
as §1

[4] = cells exposed to pathologic levels (3 nM) of insulin for two days
[5] = insulin-sensitive HepG2 cells, 3 nM insulin 4 hours

Molecule	expression of the lipogenic gene FASN after insulin stimulation [1, 4]	expression of gluconeogenesis genes [1, 5]	expression of lipogenic genes [1, 5]	glucose production after insulin stimulation [2, 4]	glucose production ([2]; insulin-sensitive HepG2 cells, acute insulin stimulation (FIGS. 22G-22H))	IR signal in condensates/puncta of hepatocytes [3]
insulin: insulin (Sigma Aldrich, I9278-5ML) used for acute stimulation and chronic physiological or pathological exposure	unchanged	downregulation of gluconeogenesis genes	upregulation of lipogenic genes	unchanged	decreased glucose production	
CN(C)C(=N)N=C(N)N [metformin, reference compound]						increased IR signals in condensates that approximated those seen in tissue from healthy donors; also recorded: IR punctate signals similar to those observed in healthy tissues
